Read-outs that look alike come from different tables or passages of the source.
What was measured:
[1] = tested on: microsomal ethanol oxidizing system (NADPH-dependent cytochrome P-450 enzymes); settings: cited from earlier work
[2] = humans; cited from earlier work
ADH3 = ADH3 (UniProt P12711); settings: cited from earlier work
[3] = target: rat liver alcohol dehydrogenase (Rattus norvegicus, UniProt P06757); test: Oxidation of alcohols by isolated rat liver alcohol dehydrogenase
[4] = cited from earlier work
rat liver ADH1 = settings: cited from earlier work
[5] = 83 mM potassium phosphate, 40 mM KCl, pH 7.3, 37 °C, 0.5 mM NAD+
[6] = uninhibited rate at higher 4-methylpyrazole and isobutyramide

Chain of rat liver alcohol dehydrogenase (P06757 2-376 limits assumed): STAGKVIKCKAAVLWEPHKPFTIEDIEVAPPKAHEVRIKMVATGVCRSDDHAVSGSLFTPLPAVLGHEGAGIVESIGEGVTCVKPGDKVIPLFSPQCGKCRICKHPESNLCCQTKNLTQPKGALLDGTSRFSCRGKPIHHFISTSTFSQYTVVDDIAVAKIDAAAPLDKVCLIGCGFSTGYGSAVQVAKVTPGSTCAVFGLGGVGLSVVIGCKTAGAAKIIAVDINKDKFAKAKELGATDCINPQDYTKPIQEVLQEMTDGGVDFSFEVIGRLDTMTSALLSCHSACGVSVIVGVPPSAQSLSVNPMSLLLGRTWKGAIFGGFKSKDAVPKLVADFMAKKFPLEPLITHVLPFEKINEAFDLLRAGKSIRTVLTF

| SMILES | Km [1] [mM] | possible contribution to the rate of ethanol metabolism [1] | rate of elimination [2] | activity of ADH3 (ADH3) | %ADH (estimated percentage of elimination due to ADH) (from inhibition by 1 mmole/kg 4-methylpyrazole) [%] | in vivo rate of elimination (rat, in vivo) [mmol/kg/h] | Km [3, 5] [mM] | V rel (Vmax relative to ethanol as substrate) [3, 5] | in vitro v rel ([3]; calculated from kinetic constants with Michaelis-Menten equation for 5 mM alcohol) | Vrel/K ([3]; pH 7.3, 37 °C, 0.5 mM NAD+) | rate of elimination ([4]; fed rats) | Km of inhibitor-insensitive elimination [4, 6] [mmol/kg] | Vmax of inhibitor-insensitive elimination [4, 6] [mmol/kg/h] | Rate (zero-order elimination) (fed rat, MP+AT, methanol 10 mmole/kg i.p.) [mmol/kg/h] | time required to eliminate the dose (rat, in vivo) [h] | Rate (zero-order elimination) (rat, in vivo, ip) [mmol/kg/h] | Vmax relative to ethanol (rat liver ADH1) |
| --- | --- | --- | --- | --- | --- | --- | --- | --- | --- | --- | --- | --- | --- | --- | --- | --- | --- |
| CCO [Ethanol, ethanol] | 9.6 | 20–25% | about 2.2 mmol/kg•h | no detectable activity | 89 | 7.9 ± 1.0 | 0.64 ± 0.22 | (1.0) | 0.88 | 1.6 | about 8 mmol/kg•h | 21 | 2.1 |  |  |  |  |
| CO [Methanol] | 22 |  |  |  |  |  |  |  |  |  |  |  |  | 0.41 | 15 | 0.56 ± 0.01 | 0.10 |

— article PMC4414724 (Chemico-biological interactions, 2015)
